{"source": "patent US12077503B2", "about": "“Substituted cyclic amides and their use as herbicides” (FMC CORPORATION, priority 2015, dated 2024)", "format_in_all_cases": "in vivo", "key": {"Kochia (Kochia scoparia) [1]": {"tested_on": "Kochia (Kochia scoparia)", "assay": "Test A preemergence", "settings": "for Plant response rating, Kochia: preemergence", "in_short": "(§1)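 Compounds were formulated in a non-phytotoxic solvent mixture with surfactant and applied as a preemergence directed soil spray after seeding, or sprayed postemergence over plants 2 to 10 cm tall at the one- to two-leaf stage. Evaluation after about 10 d compared treated with untreated controls, using a scale from 0 (no effect) to 100 (complete control).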"}, "[2]": {"tested_on": "ragweed (common ragweed, Ambrosia elatior)", "assay": "Test A preemergence", "settings": "for Plant response rating, Ragweed: preemergence", "in_short": "as §1"}, "[3]": {"tested_on": "ryegrass, Italian (Italian ryegrass, Lolium multiflorum)", "assay": "Test A preemergence", "settings": "for Plant response rating, Ryegrass, Italian: preemergence", "in_short": "as §1"}, "[4]": {"tested_on": "giant foxtail (Setaria faberii)", "assay": "Test A preemergence", "settings": "for Plant response rating, Foxtail, Giant: preemergence", "in_short": "as §1"}, "[5]": {"tested_on": "barnyardgrass (Echinochloa crus-galli)", "assay": "Test A preemergence", "settings": "for Plant response rating, Barnyardgrass: preemergence", "in_short": "as §1"}, "[6]": {"tested_on": "pigweed (Amaranthus retroflexus)", "assay": "Test A preemergence", "settings": "for Plant response rating, Pigweed: preemergence"}, "[7]": {"tested_on": "ducksalad (Heteranthera limosa)", "assay": "Test B flooded paddy test", "settings": "Flood, 0 to 100 scale where 0 is no effect and 100 is complete control, 13 to 15 d", "in_short": "(§2)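 Flooding to 3 cm over soil accompanied treatment, which consisted of adding compound to the standing water around 2-leaf plants; depth was then maintained. Visual assessment versus controls followed at 13 to 15 d (scale 0–100, 0 meaning no effect).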"}, "[8]": {"tested_on": "sedge, umbrella (small-flower umbrella sedge, Cyperus difformis)", "assay": "Test B flooded paddy test", "settings": "Flood, 0 to 100 scale where 0 is no effect and 100 is complete control, 13 to 15 d", "in_short": "as §2"}, "[9]": {"tested_on": "barnyardgrass (Echinochloa crus-galli)", "assay": "Test B flooded paddy test", "settings": "Flood, 0 to 100 scale where 0 is no effect and 100 is complete control, 13 to 15 d", "in_short": "as §2"}, "rice (Oryra sativa)": {"tested_on": "rice (Oryra sativa)", "assay": "Test B flooded paddy test", "settings": "Flood, 0 to 100 scale where 0 is no effect and 100 is complete control, 13 to 15 d", "in_short": "as §2"}, "Kochia (Kochia scoparia) [10]": {"tested_on": "Kochia (Kochia scoparia)", "assay": "Test A postemergence", "settings": "postemergence", "in_short": "as §1"}, "[11]": {"tested_on": "ragweed (common ragweed, Ambrosia elatior)", "assay": "Test A postemergence", "settings": "postemergence", "in_short": "as §1"}, "[12]": {"tested_on": "wheat (Triticum aestivum)", "assay": "Test A postemergence", "settings": "postemergence", "in_short": "as §1"}, "[13]": {"tested_on": "Galium (catchweed bedstraw, Galium aparine)", "assay": "Test A postemergence", "settings": "postemergence", "in_short": "as §1"}, "[14]": {"tested_on": "ryegrass, Italian (Italian ryegrass, Lolium multiflorum)", "assay": "Test A postemergence", "settings": "postemergence", "in_short": "as §1"}, "[15]": {"tested_on": "giant foxtail (Setaria faberii)", "assay": "Test A postemergence", "settings": "postemergence", "in_short": "as §1"}, "corn (Zea mays)": {"tested_on": "corn (Zea mays)", "assay": "Test A postemergence", "settings": "postemergence", "in_short": "as §1"}, "[16]": {"tested_on": "barnyardgrass (Echinochloa crus-galli)", "assay": "Test A postemergence", "settings": "postemergence", "in_short": "as §1"}, "[17]": {"tested_on": "blackgrass (Alopecurus myosuroides)", "assay": "Test A postemergence", "settings": "postemergence", "in_short": "as §1"}, "[18]": {"tested_on": "pigweed (Amaranthus retroflexus)", "assay": "Test A postemergence", "settings": "postemergence", "in_short": "as §1"}, "[19]": {"settings": "125 g ai/ha, visual rating after approx. 10 d, 0 to 100 scale where 0 is no effect and 100 is complete control"}, "[20]": {"settings": "500 g ai/ha, 0 to 100 scale, 0 = no effect, 100 = complete control"}, "[21]": {"settings": "125 g ai/ha, visual injury after approximately 10 d, 0 to 100 scale (0 no effect, 100 complete control)"}, "[22]": {"settings": "500 g ai/ha, visual injury, 0 to 100 scale (0 no effect, 100 complete control), approx. 10 d"}, "[23]": {"settings": "125 g ai/ha, 0 to 100 scale (0 no effect, 100 complete control)"}, "[24]": {"settings": "Preemergence, 500 g ai/ha, visual injury approx. 10 d"}, "[25]": {"settings": "125 g ai/ha, visual injury rating on 0 to 100 scale (0 no effect, 100 complete control), approx. 10 d"}, "[26]": {"settings": "500 g ai/ha, 0 to 100 scale, 0 no effect, 100 complete control"}}}
{"smiles": "O=C1NCC(c2cccc(OC(F)(F)C(F)F)c2)C1C(=O)Nc1ccccc1Cl", "note": "(racemic) [Compound 699]", "values": [{"measurement": "Plant response rating, Kochia", "setting": "Kochia (Kochia scoparia) [1]; [19]", "value": 0}, {"measurement": "Plant response rating, Kochia", "setting": "Kochia (Kochia scoparia) [1]; [20]", "value": 70}, {"measurement": "Plant response rating, Ragweed", "setting": "[2]; [19]", "value": 0}, {"measurement": "Plant response rating, Ragweed", "setting": "[2]; [20]", "value": 70}, {"measurement": "Plant response rating, Ryegrass, Italian", "setting": "[3]; [19]", "value": 20}, {"measurement": "Plant response rating, Ryegrass, Italian", "setting": "[3]; [20]", "value": 40}, {"measurement": "Plant response rating, Foxtail, Giant", "setting": "[4]; [19]", "value": 90}, {"measurement": "Plant response rating, Foxtail, Giant", "setting": "[4]; [20]", "value": 90}, {"measurement": "Plant response rating, Barnyardgrass", "setting": "[5]; [19]", "value": 90}, {"measurement": "Plant response rating, Barnyardgrass", "setting": "[5]; [20]", "value": 90}, {"measurement": "Plant response rating, Pigweed", "setting": "[6]; [19]", "value": 30}, {"measurement": "Plant response rating, Pigweed", "setting": "[6]; [20]", "value": 50}, {"measurement": "Plant response rating, Ducksalad", "setting": "[7]; 500 g ai/ha", "value": 90}, {"measurement": "Plant response rating, Sedge, Umbrella", "setting": "[8]; 500 g ai/ha", "value": 0}, {"measurement": "Plant response rating, Barnyardgrass", "setting": "[9]; 500 g ai/ha", "value": 60}, {"measurement": "Plant response rating, Rice", "setting": "rice (Oryra sativa); 500 g ai/ha", "value": 0}, {"measurement": "Plant response rating, Kochia", "setting": "Kochia (Kochia scoparia) [10]; [21]", "value": 30}, {"measurement": "Plant response rating, Kochia", "setting": "Kochia (Kochia scoparia) [10]; [22]", "value": 50}, {"measurement": "Plant response rating, Ragweed", "setting": "[11]; [21]", "value": 0}, {"measurement": "Plant response rating, Ragweed", "setting": "[11]; [22]", "value": 30}, {"measurement": "Plant response rating, Wheat", "setting": "[12]; [21]", "value": 0}, {"measurement": "Plant response rating, Wheat", "setting": "[12]; [22]", "value": 20}, {"measurement": "Plant response rating, Galium", "setting": "[13]; [21]", "value": 50}, {"measurement": "Plant response rating, Galium", "setting": "[13]; [22]", "value": 60}, {"measurement": "Plant response rating, Ryegrass, Italian", "setting": "[14]; [21]", "value": 0}, {"measurement": "Plant response rating, Ryegrass, Italian", "setting": "[14]; [22]", "value": 30}, {"measurement": "Plant response rating, Foxtail, Giant", "setting": "[15]; [21]", "value": 50}, {"measurement": "Plant response rating, Foxtail, Giant", "setting": "[15]; [22]", "value": 80}, {"measurement": "Plant response rating, Corn", "setting": "corn (Zea mays); [21]", "value": 30}, {"measurement": "Plant response rating, Corn", "setting": "corn (Zea mays); [22]", "value": 60}, {"measurement": "Plant response rating, Barnyardgrass", "setting": "[16]; [21]", "value": 50}, {"measurement": "Plant response rating, Barnyardgrass", "setting": "[16]; [22]", "value": 80}, {"measurement": "Plant response rating, Blackgrass", "setting": "[17]; [21]", "value": 30}, {"measurement": "Plant response rating, Blackgrass", "setting": "[17]; [22]", "value": 60}, {"measurement": "Plant response rating, Pigweed", "setting": "[18]; [21]", "value": 20}, {"measurement": "Plant response rating, Pigweed", "setting": "[18]; [22]", "value": 20}]}
{"smiles": "CN1CC(c2ccc(C(F)(F)F)c(F)c2)C(C(=O)Nc2ccc(F)cc2F)C1=O", "note": "(stereo not drawn) [Compound 398]", "values": [{"measurement": "Plant response rating, Kochia", "setting": "Kochia (Kochia scoparia) [1]; [23]", "value": 70}, {"measurement": "Kochia plant response rating (0 to 100 scale, 0 is no effect, 100 is complete control)", "setting": "Kochia (Kochia scoparia) [1]; [24]", "value": 90}, {"measurement": "Plant response rating, Ragweed", "setting": "[2]; [23]", "value": 20}, {"measurement": "Ragweed plant response rating (0 to 100 scale, 0 is no effect, 100 is complete control)", "setting": "[2]; [24]", "value": 30}, {"measurement": "Plant response rating, Ryegrass, Italian", "setting": "[3]; [23]", "value": 30}, {"measurement": "Ryegrass, Italian plant response rating (0 to 100 scale, 0 is no effect, 100 is complete control)", "setting": "[3]; [24]", "value": 70}, {"measurement": "Plant response rating, Foxtail, Giant", "setting": "[4]; [23]", "value": 90}, {"measurement": "Foxtail, Giant plant response rating (0 to 100 scale, 0 is no effect, 100 is complete control)", "setting": "[4]; [24]", "value": 90}, {"measurement": "Plant response rating, Barnyardgrass", "setting": "[5]; [23]", "value": 90}, {"measurement": "Barnyardgrass plant response rating (0 to 100 scale, 0 is no effect, 100 is complete control)", "setting": "[5]; [24]", "value": 90}, {"measurement": "Plant response rating, Pigweed", "setting": "[6]; [23]", "value": 70}, {"measurement": "Pigweed plant response rating (0 to 100 scale, 0 is no effect, 100 is complete control)", "setting": "[6]; [24]", "value": 90}, {"measurement": "Plant response rating, Ducksalad", "setting": "[7]; 250 g ai/ha", "value": 80}, {"measurement": "Plant response rating, Sedge, Umbrella", "setting": "[8]; 250 g ai/ha", "value": 0}, {"measurement": "Plant response rating, Barnyardgrass", "setting": "[9]; 250 g ai/ha", "value": 60}, {"measurement": "Plant response rating, Rice", "setting": "rice (Oryra sativa); 250 g ai/ha", "value": 20}, {"measurement": "Kochia plant response rating", "setting": "Kochia (Kochia scoparia) [10]; [25]", "value": 60}, {"measurement": "Plant response rating, Kochia", "setting": "Kochia (Kochia scoparia) [10]; [26]", "value": 80}, {"measurement": "Ragweed plant response rating", "setting": "[11]; [25]", "value": 0}, {"measurement": "Plant response rating, Ragweed", "setting": "[11]; [26]", "value": 0}, {"measurement": "Wheat plant response rating", "setting": "[12]; [25]", "value": 20}, {"measurement": "Plant response rating, Wheat", "setting": "[12]; [26]", "value": 70}, {"measurement": "Galium plant response rating", "setting": "[13]; [25]", "value": 50}, {"measurement": "Plant response rating, Galium", "setting": "[13]; [26]", "value": 60}, {"measurement": "Ryegrass, Italian plant response rating", "setting": "[14]; [25]", "value": 20}, {"measurement": "Plant response rating, Ryegrass, Italian", "setting": "[14]; [26]", "value": 50}, {"measurement": "Foxtail, Giant plant response rating", "setting": "[15]; [25]", "value": 80}, {"measurement": "Plant response rating, Foxtail, Giant", "setting": "[15]; [26]", "value": 90}, {"measurement": "Corn plant response rating", "setting": "corn (Zea mays); [25]", "value": 60}, {"measurement": "Plant response rating, Corn", "setting": "corn (Zea mays); [26]", "value": 70}, {"measurement": "Barnyardgrass plant response rating", "setting": "[16]; [25]", "value": 90}, {"measurement": "Plant response rating, Barnyardgrass", "setting": "[16]; [26]", "value": 90}, {"measurement": "Blackgrass plant response rating", "setting": "[17]; [25]", "value": 40}, {"measurement": "Plant response rating, Blackgrass", "setting": "[17]; [26]", "value": 60}, {"measurement": "Pigweed plant response rating", "setting": "[18]; [25]", "value": 50}, {"measurement": "Plant response rating, Pigweed", "setting": "[18]; [26]", "value": 60}]}
